Source: US20100249419A1, “UTILIZATION OF NOVEL COMPOUNDS WITH AMYLOID AFFINITY AND METHOD OF PRODUCING THE SAME” (NIHON MEDI-PHYSICS CO., LTD., priority 2007, published 2010)

Assay: Radioactive distribution ratio in each organ
Format: in vivo, SD rat
Method: In order to confirm that a compound of the present invention can be distributed in a target organ and has good clearance to the outside of the body, Compound 1 was used to measure a time-course change of radioactive accumulation to each organ in SD rat (8 weeks).
A solution of Compound 1 prepared in Example 3 in diethylether was diluted with a 10 mg/mL ascorbic acid-containing physiological saline solution (Example 10) and adjusted to 8-12 MBq/mL in radioactive concentration. 0.05 mL each of the prepared sample solution was administered under thiopental anesthesia into the tail vein of the above rat. The rats were sacrificed by bleeding from abdominal artery, and each organ shown in Table 11 was removed 5, 30, 60 and 180 minutes after the administration. Each removed organ was subjected to measurement of mass and radioactivity with the same method as in Example 10. Also, radioactivity of the whole body of the rat after removal of the organs (hereinafter referred to as rest of the whole body) was measured. Using these measurement results, radioactive distribution per unit weight of each organ (% ID/g) at the respective time points was calculated in accordance with the following formula (7).
Three animals were used for the experiment at the respective time points.
[formula] • R^T: Radioactivity of target organ (cpm) • R^S: Sum of radioactivity of all the organs (cpm) • R^R: Radioactivity of the rest of the whole body (cpm) • M^T: Mass of target organ (g)

Substance: 2-[4′-(2″-hydroxyethoxy)phenyl]-6-[^123I]iodoimidazo[1,2-a]pyridine [Compound 1]
- Radioactive distribution per unit weight of organ, Average (Adrenal gland, 5 min. after administration): 2.471 % ID/g
- Radioactive distribution per unit weight of organ, Average (Adrenal gland, 30 min. after administration): 0.199 % ID/g
- Radioactive distribution per unit weight of organ, Average (Adrenal gland, 60 min. after administration): 0.068 % ID/g
- Radioactive distribution per unit weight of organ, Average (Adrenal gland, 180 min. after administration): 0.052 % ID/g
- Radioactive distribution per unit weight of organ, Average (Blood, 5 min. after administration): 0.420 % ID/g
- Radioactive distribution per unit weight of organ, Average (Blood, 30 min. after administration): 0.129 % ID/g
- Radioactive distribution per unit weight of organ, Average (Blood, 60 min. after administration): 0.101 % ID/g
- Radioactive distribution per unit weight of organ, Average (Blood, 180 min. after administration): 0.068 % ID/g
- Radioactive distribution per unit weight of organ, Average (Bone, 5 min. after administration): 0.282 % ID/g
- Radioactive distribution per unit weight of organ, Average (Bone, 30 min. after administration): 0.066 % ID/g
- Radioactive distribution per unit weight of organ, Average (Bone, 60 min. after administration): 0.047 % ID/g
- Radioactive distribution per unit weight of organ, Average (Bone, 180 min. after administration): 0.032 % ID/g
- Radioactive distribution per unit weight of organ, Average (Brain, 5 min. after administration): 0.755 % ID/g
- Radioactive distribution per unit weight of organ, Average (Brain, 30 min. after administration): 0.049 % ID/g
- Radioactive distribution per unit weight of organ, Average (Brain, 60 min. after administration): 0.014 % ID/g
- Radioactive distribution per unit weight of organ, Average (Brain, 180 min. after administration): 0.005 % ID/g
- Radioactive distribution per unit weight of organ, Average (Heart, 5 min. after administration): 0.582 % ID/g
- Radioactive distribution per unit weight of organ, Average (Heart, 30 min. after administration): 0.081 % ID/g
- Radioactive distribution per unit weight of organ, Average (Heart, 60 min. after administration): 0.049 % ID/g
- Radioactive distribution per unit weight of organ, Average (Heart, 180 min. after administration): 0.029 % ID/g
- Radioactive distribution per unit weight of organ, Average (Kidney, 5 min. after administration): 1.212 % ID/g
- Radioactive distribution per unit weight of organ, Average (Kidney, 30 min. after administration): 0.432 % ID/g
- Radioactive distribution per unit weight of organ, Average (Kidney, 60 min. after administration): 0.236 % ID/g
- Radioactive distribution per unit weight of organ, Average (Kidney, 180 min. after administration): 0.070 % ID/g
- Radioactive distribution per unit weight of organ, Average (Large intestine, 5 min. after administration): 0.139 % ID/g
- Radioactive distribution per unit weight of organ, Average (Large intestine, 30 min. after administration): 0.054 % ID/g
- Radioactive distribution per unit weight of organ, Average (Large intestine, 60 min. after administration): 0.069 % ID/g
- Radioactive distribution per unit weight of organ, Average (Large intestine, 180 min. after administration): 6.876 % ID/g
- Radioactive distribution per unit weight of organ, Average (Liver, 5 min. after administration): 1.865 % ID/g
- Radioactive distribution per unit weight of organ, Average (Liver, 30 min. after administration): 0.293 % ID/g
- Radioactive distribution per unit weight of organ, Average (Liver, 60 min. after administration): 0.113 % ID/g
- Radioactive distribution per unit weight of organ, Average (Liver, 180 min. after administration): 0.051 % ID/g
- Radioactive distribution per unit weight of organ, Average (Lung, 5 min. after administration): 0.661 % ID/g
- Radioactive distribution per unit weight of organ, Average (Lung, 30 min. after administration): 0.117 % ID/g
- Radioactive distribution per unit weight of organ, Average (Lung, 60 min. after administration): 0.076 % ID/g
- Radioactive distribution per unit weight of organ, Average (Lung, 180 min. after administration): 0.053 % ID/g
- Radioactive distribution per unit weight of organ, Average (Marrow, 5 min. after administration): 0.921 % ID/g
- Radioactive distribution per unit weight of organ, Average (Marrow, 30 min. after administration): 0.087 % ID/g
- Radioactive distribution per unit weight of organ, Average (Marrow, 60 min. after administration): 0.015 % ID/g
- Radioactive distribution per unit weight of organ, Average (Marrow, 180 min. after administration): 0.000 % ID/g
- Radioactive distribution per unit weight of organ, Average (Muscle, 5 min. after administration): 0.372 % ID/g
- Radioactive distribution per unit weight of organ, Average (Muscle, 30 min. after administration): 0.042 % ID/g
- Radioactive distribution per unit weight of organ, Average (Muscle, 60 min. after administration): 0.025 % ID/g
- Radioactive distribution per unit weight of organ, Average (Muscle, 180 min. after administration): 0.015 % ID/g
- Radioactive distribution per unit weight of organ, Average (Pancreas, 5 min. after administration): 0.778 % ID/g
- Radioactive distribution per unit weight of organ, Average (Pancreas, 30 min. after administration): 0.097 % ID/g
- Radioactive distribution per unit weight of organ, Average (Pancreas, 60 min. after administration): 0.051 % ID/g
- Radioactive distribution per unit weight of organ, Average (Pancreas, 180 min. after administration): 0.033 % ID/g
- Excretion / clearance to the outside of the body (SD rat, tail vein administration): biliary-excreted rapidly
- Radioactive distribution per unit weight of organ, Average (Small intestine, 5 min. after administration): 1.299 % ID/g
- Radioactive distribution per unit weight of organ, Average (Small intestine, 30 min. after administration): 6.720 % ID/g
- Radioactive distribution per unit weight of organ, Average (Small intestine, 60 min. after administration): 7.515 % ID/g
- Radioactive distribution per unit weight of organ, Average (Small intestine, 180 min. after administration): 0.882 % ID/g
- Radioactive distribution per unit weight of organ, Average (Spleen, 5 min. after administration): 0.508 % ID/g
- Radioactive distribution per unit weight of organ, Average (Spleen, 30 min. after administration): 0.072 % ID/g
- Radioactive distribution per unit weight of organ, Average (Spleen, 60 min. after administration): 0.044 % ID/g
- Radioactive distribution per unit weight of organ, Average (Spleen, 180 min. after administration): 0.035 % ID/g
- Radioactive distribution per unit weight of organ, Average (Stomach, 5 min. after administration): 0.492 % ID/g
- Radioactive distribution per unit weight of organ, Average (Stomach, 30 min. after administration): 1.202 % ID/g
- Radioactive distribution per unit weight of organ, Average (Stomach, 60 min. after administration): 0.808 % ID/g
- Radioactive distribution per unit weight of organ, Average (Stomach, 180 min. after administration): 0.982 % ID/g
- Ratio (% ID/g at 5 minutes after the administration)/(% ID/g at 180 minutes after the administration) (bones): 9
- Ratio (% ID/g at 5 minutes after the administration)/(% ID/g at 180 minutes after the administration) (brain): 145
- Ratio (% ID/g at 5 minutes after the administration)/(% ID/g at 180 minutes after the administration) (heart): 20
- Ratio (% ID/g at 5 minutes after the administration)/(% ID/g at 180 minutes after the administration) (lung): 13
- Ratio (% ID/g at 5 minutes after the administration)/(% ID/g at 180 minutes after the administration) (pancreas): 24
